Several values for one entry are separate records, joined by “and”; a condition that tells them apart may be missing. Equal values may be shown once. Entries after “also recorded” stand apart in the source; their conditions may differ.
Assays:
[1] = tested on: human breast carcinoma MDA-MB-468; assay: In vivo efficacy, MDA-MB-468 implanted s.c.; parameters: species or system SCID mice
Protocol: In vivo studies: SCID mice were maintained as per McGill animal safety protocols. In a preliminary model, SCID mice housed in filtered cages were implanted subcutaneously (s.c.) with the human breast carcinoma MDA-MB-468 and treatment began when the tumors were palpable (8 mice/group). […] The tumor burdens were measured with a caliper and mice were weighed twice weekly. The study was later repeated with the MDA-MB-468 cells implanted in the mammary fat pad, a model that better mimics human breast carcinoma.

[2] = molecular target: T1, erbB2 (Homo sapiens, UniProt P04626); assay: Heregulin-induced autophosphorylation in MDA-MB-453 cells (Western blot); type: cell-based; settings: 2 h preincubation, heregulin 10 min
T1 construct: heregulin-induced autophosphorylation in MDA-MB-453 cells; endogenous in cells; host or cells: MDA-MB-453 (ATCC)
T1 sequence (P04626 23-1255): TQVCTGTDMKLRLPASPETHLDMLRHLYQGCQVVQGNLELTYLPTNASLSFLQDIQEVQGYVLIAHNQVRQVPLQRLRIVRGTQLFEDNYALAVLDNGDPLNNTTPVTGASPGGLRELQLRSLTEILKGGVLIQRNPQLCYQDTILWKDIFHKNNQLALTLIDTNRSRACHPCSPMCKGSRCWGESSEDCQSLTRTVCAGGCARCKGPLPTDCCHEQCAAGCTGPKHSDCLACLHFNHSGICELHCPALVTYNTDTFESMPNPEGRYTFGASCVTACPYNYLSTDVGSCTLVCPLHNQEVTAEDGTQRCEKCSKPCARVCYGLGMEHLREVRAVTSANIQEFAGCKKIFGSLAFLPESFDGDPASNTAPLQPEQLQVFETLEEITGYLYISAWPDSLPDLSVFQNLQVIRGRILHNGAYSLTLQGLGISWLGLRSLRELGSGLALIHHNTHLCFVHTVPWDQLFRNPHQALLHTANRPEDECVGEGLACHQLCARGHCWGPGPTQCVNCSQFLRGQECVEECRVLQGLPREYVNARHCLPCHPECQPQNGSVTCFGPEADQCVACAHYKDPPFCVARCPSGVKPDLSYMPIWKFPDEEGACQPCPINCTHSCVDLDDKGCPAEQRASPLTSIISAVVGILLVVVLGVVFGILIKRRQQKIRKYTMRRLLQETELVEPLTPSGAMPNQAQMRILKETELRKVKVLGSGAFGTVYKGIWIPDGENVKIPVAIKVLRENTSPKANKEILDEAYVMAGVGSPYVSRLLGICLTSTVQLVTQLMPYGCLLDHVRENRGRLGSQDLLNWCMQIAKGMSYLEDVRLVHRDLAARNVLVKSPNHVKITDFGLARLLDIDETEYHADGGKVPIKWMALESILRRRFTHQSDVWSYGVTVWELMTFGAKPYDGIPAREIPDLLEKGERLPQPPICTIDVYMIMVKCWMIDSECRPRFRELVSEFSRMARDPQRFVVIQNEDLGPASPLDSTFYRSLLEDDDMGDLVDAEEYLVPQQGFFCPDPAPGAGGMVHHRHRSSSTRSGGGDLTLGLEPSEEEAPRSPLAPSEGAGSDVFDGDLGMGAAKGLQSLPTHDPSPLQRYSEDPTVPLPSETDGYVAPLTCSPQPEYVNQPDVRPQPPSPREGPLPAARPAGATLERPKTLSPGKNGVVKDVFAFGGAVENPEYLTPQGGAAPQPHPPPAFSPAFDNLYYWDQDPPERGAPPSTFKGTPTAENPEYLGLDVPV
Protocol: Autophosphorylation assay: Inhibition of receptor autophosphorylation in viable cells was determined by anti-phosphotyrosine Western blots as previously described (19). […] Equal amounts of cell lysates were analyzed by Western blot using anti-phosphotyrosine antibodies. Membranes were stripped of anti-phosphotyrosine and reprobed with anti-EGFR or anti-erbB2 antibodies (NeoMarkers, Fremont, Calif.). To study whether an inhibition is reversible or not, duplicate sets of cells were treated with 2 μM of designated compound for 2 h. One set of cells was then stimulated with EGF. The other set of cells was washed free of the compound with warmed serum-free media, incubated for 2 h, washed again, incubated for another 2 h, and incubated for a further 4 h after a subsequent wash. This set of cells was then stimulated with EGF. Western blot was performed as previously described. […] The membrane was incubated with anti-phosphorylated MAPK (Erk1,2) or anti-Erk 1,2 antibodies (Cell Signaling Technology Inc., Beverly, Mass.).

ClCCNc1ccc2ncnc(Nc3cccc(Br)c3)c2c1 [ZR2002] was tested, and the “in vivo antitumor activity” value ([1]; 50 mg/kg i.p. every 3-4 days, one month, s.c. tumors, p<0.001 vs vehicle) was “modest; also recorded: moderate antiproliferative activity”, the tolerated dose ([1]; SCID mice, i.p.) was 50 mg/kg and the IC50 [2] was ~230 nM and 236 nM.
